Experimental data from US12629419B2, “Prevention or mitigation of T-cell engaging agent-related adverse effects” (Hoffmann-La Roche Inc., priority 2020, dated 2026).
Entries after “also recorded” stand apart in the source; their conditions may differ.

Key:
[1] = system: CTV WSU tumor cells; test: tumor cell killing by PGLALA and CD16 universal CAR-T cells; type: cell-based; settings: 100 nM inhibitor, 24 hours; for tumor cell killing by PGLALA CAR-T cells: PGLALA Fc anti-CD20 IgG; for tumor cell killing by CD16 CAR-T cells: wild-type Fc anti-CD20 IgG
Experimental: FIG. 61. CTV labelled WSU tumor cell killing by PGLALA CAR-T cells (A) and CD16 CAR-T cells (B) in the presence and absence of 100 nM ruxolitinib or 100 nM sirolimus. PGLALA CAR-T cells and CD16 CAR-T cells were co-cultured together with CTV labelled WSU tumor cells (E:T=10:1) and escalating concentrations of anti-CD20 IgG with either PGLALA-Fc (for PGLALA CAR-T cells) or wild-type Fc (for CD16 CAR-T cells) in the presence and absence of 100 nM ruxolitinib (ruxo) or 100 nM sirolimus (siro). At 24 hours, the technical replicates were pooled and stained with a LIVE/DEAD™ Near-IR dye to allow exclusion of dead CTV labelled WSU DLCL2 tumor cells by flow cytometry. 1 representative donor.
(§1) To assess the impact of JAK inhibitor ruxolitinib and mTOR inhibitor sirolimus on cytokine release induced by CAR-T cells, we conducted a killing assay where PGLALA and CD16 universal CAR-T cells (CAR-T cells with a CAR comprising an anti-P329G-Fc scFv (binding to PGLALA Fc) or CD16 (binding to wild-type Fc)) were co-cultured with CTV WSU tumor cells in the presence of escalating concentrations of PGLALA Fc and wild-type Fc anti-CD20 IgG in medium supplemented with 100 nM ruxolitinib or 100 nM sirolimus. To verify whether ruxolitinib and sirolimus interfered with tumor cell killing by CAR-T cells, we measured killing of CTV WSU tumor cells by flow cytometry at 24 hours.

[2] = system: cytokine release induced by CAR-T cells; test: cytokine release induced by PGLALA and CD16 CAR-T cells (Luminex); type: cell-based; settings: 100 nM inhibitor
Experimental: (§2) FIG. 62. Effect of 100 nM ruxolitinib and 100 nM sirolimus on GM-CSF (A), IFN-γ (B), IL-2 (C) and TNF-α (D) induced by PGLALA CAR-T cells. PGLALA CAR-T cells were co-cultured together with CTV labelled WSU tumor cells (E:T=10:1) and escalating concentrations of PGLALA-Fc anti-CD20 IgG in the presence and absence of 100 nM ruxolitinib (ruxo) or 100 nM sirolimus (siro) respectively. At 24 hours, the supernatants from technical replicates were pooled and cytokines were analyzed by Luminex. Mean of n=2 donors.
as §2, with “63.” for “62.”, “CD16” for “PGLALA”, “wild-type Fc” for “PGLALA-Fc”, “(siro).” for “(siro) respectively.”
as §1

[3] = system: CD19-TCB-mediated cytokine release; test: cytokine release upon first CD19-TCB infusion in lymphoma PDX bearing mice (serum); type: in vivo; settings: for effects on cytokine levels: compared with obinutuzumab pre-treatment
Experimental: (§3) FIG. 89. In vivo experiment timelines and dosing schedule. Humanized NSG mice were engrafted with a lymphoma PDX (5 million cells, s.c.). […] The kinase inhibitors were given twice on the day of the first CD19-TCB administration (D16, once 1 hour before CD19-TCB, and once afterwards), and then once (sirolimus) or twice (dasatinib, ruxolitinib) on the two following days (D17 and D18), as well as once 1 hour before each subsequent CD19-TCB administration.
FIG. 94. […] Cytokine levels were measured by Luminex in serum collected 6 hrs post first infusion with CD19-TCB. Mean of n=6-8 mice+SD with *p≤0.05, **p<0.01, ***p<0.001 by 1 way ANOVA (Kruskal Wallis test).
(§4) First, we verified if the PDX cells were killed upon treatment with CD19-TCB in vitro, using a killing assay. The lymphoma PDX cells were co-cultured together with PBMCs (E:T=10:1) in the presence of CD19-TCB. […] Moreover, they were also administered one hour before each subsequent treatment to prevent residual cytokine secretion (FIG. 89).

[4] = system: NALM-6 tumors cells; test: CD19-TCB killing assay with NALM-6 cells, inhibitors added after 24 hrs of activation: killing; type: cell-based; settings: 100 nM added at 24 hrs; measured at 48 hrs
Experimental: FIG. 78. In vitro killing assay set-up. PBMCs were co-cultured with CTV labelled NALM-6 cells (E:T=10:1) in the presence of escalating concentrations of CD19-TCB for 24 hrs. At 24 hrs, the culture medium was supplemented with 100 nM dasatinib, 100 nM sirolimus or 100 nM ruxolitinib.
To assess whether the mTOR inhibitor sirolimus, the JAK1/2 inhibitor ruxolitinib and the Src inhibitor dasatinib can prevent further release of cytokines induced by the treatment of CD19-TCB, they were added in an in vitro killing assay after 24 hrs of activation (FIG. 78). In this assay CTV labelled NALM-6 tumors cells were co-cultured with PBMCs in the presence of escalating doses of CD19-TCB for 24 hrs. At 24 hrs, 100 nM ruxolitinib, 100 nM sirolimus or 100 nM dasatinib were added in the system. To verify if T cells were activated before the addition of the different kinase inhibitors, tumor cell killing and cytokine release were measured at 24 hrs (FIGS. 79 and 80). Lastly, cytokine release and tumor cell killing were measured at 48 hrs to assess the effect of the addition of 100 nM ruxolitinib, 100 nM sirolimus or 100 nM dasatinib on CD19-TCB-induced cytokine release as compared to the effect on killing.

[5] = system: CD19-TCB-induced cytokine release; test: CD19-TCB-induced cytokine release in humanized NSG mice (serum, Luminex); type: in vivo; settings: serum 6 hrs post treatment with CD19-TCB
Source text: FIG. 81. In vivo experiment timelines and dosing schedule.
To best reproduce the pharmacodynamic profile of ruxolitinib, dasatinib and sirolimus in the clinic and to verify whether the resulting exposure would be sufficient to prevent CD19-TCB-induced cytokine release, dasatinib and ruxolitinib were given per os twice per day, and sirolimus was given per os twice per day on day 1 and then once per day.

[6] = system: lymphoma patient derived xenograft (PDX); test: CD19-TCB anti-tumor activity in lymphoma PDX bearing humanized NSG mice; type: in vivo; settings: sirolimus 5 mg/kg, p.o.; for anti-tumor activity in combination with CD19-TCB (0.5 mg/kg): ruxolitinib 30 mg/kg, dasatinib 20 mg/kg, dexamethasone, transient use
Experimental: as §3, §4

[7] = serum 6 hrs post first infusion with CD19-TCB, ruxolitinib 30 mg/kg

Compound | tumor cell killing by PGLALA CAR-T cells [1] | tumor cell killing by CD16 CAR-T cells [1] | release of IFN-γ, TNF-α and GM-CSF ([2]; CD16 CAR-T cells) | release of IL-2 ([2]; CD16 CAR-T cells) | release of IFN-γ, TNF-α and GM-CSF ([2]; PGLALA CAR-T cells) | release of IL-2 ([2]; PGLALA CAR-T cells) | effects on cytokine levels [3] | IL-2, IFN-γ, TNF-α and IL-6 release upon the first infusion ([3]; serum 6 hrs post first infusion with CD19-TCB) | CTV labelled NALM-6 tumor cell killing [4] | CD19-TCB-induced IFN-γ and IL-6 release [5] | CD19-TCB-induced IL-2 and TNF-α [5] | anti-tumor activity in combination with CD19-TCB (0.5 mg/kg) [6] | tumor growth, given as a single agent ([6]; dexamethasone 1, 0.5, 0.25 mg/kg) | IFN-γ, TNF-α and IL-2 release [3, 7] | IL-6 release [3, 7]
CO[C@H]1C[C@@H]2CC[C@@H](C)[C@@](O)(O2)C(=O)C(=O)N2CCCC[C@H]2C(=O)O[C@H]([C@H](C)C[C@@H]2CC[C@@H](O)[C@H](OC)C2)CC(=O)[C@H](C)/C=C(\C)[C@@H](O)[C@@H](OC)C(=O)[C@H](C)C[C@H](C)/C=C/C=C/C=C/1C [sirolimus, Sirolimus] | neither sirolimus nor ruxolitinib prevented | neither sirolimus nor ruxolitinib prevented | strongly reduced | strongly reduced | strongly reduced | strongly reduced | stronger than the effect of obinutuzumab pre-treatment | suppressed | did not prevent | comparable to the pre-treatement with obinutuzumab | comparable to the pre-treatement with Gazyva® | comparable to CD19-TCB alone; also recorded: did not impair | reduction in tumor growth, yet not significant | – | –
N#CC[C@H](C1CCCC1)n1cc(-c2ncnc3[nH]ccc23)cn1 [ruxolitinib, Ruxolitinib] | neither sirolimus nor ruxolitinib prevented | neither sirolimus nor ruxolitinib prevented | reduced | – | reduced | – | stronger than the effect of obinutuzumab pre-treatment | – | did not prevent | comparable to the pre-treatement with obinutuzumab | slightly weaker | minimally interfered; also recorded: did not impair | – | to a lower extent | decreased
